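Following 48 hours of exposure in 96-well plates, responses at five concentrations were used to interpolate endpoints linearly. GI50 is the concentration that inhibits growth by half. At the TGI there is no net growth.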
Assays:
Test in all cases: growth of human tumour cells (NCI), 48 h
NCI-H226 lung = test system: NCI-H226 lung
SK-MEL-5 melanoma = test system: SK-MEL-5 melanoma
SNB-75 CNS = test system: SNB-75 CNS
CAKI-1 renal = test system: CAKI-1 renal
SW-620 colon = test system: SW-620 colon
COLO 205 colon = test system: COLO 205 colon
SK-OV-3 ovarian = test system: SK-OV-3 ovarian
DLD-1 colon = test system: DLD-1 colon
KM12 colon = test system: KM12 colon
OVCAR-3 ovarian = test system: OVCAR-3 ovarian
DMS 273 small cell lung = test system: DMS 273 small cell lung
OVCAR-4 ovarian = test system: OVCAR-4 ovarian
SNB-19 CNS = test system: SNB-19 CNS
HOP-62 NSCLC = test system: HOP-62 NSCLC
HL-60(TB) leukemia = test system: HL-60(TB) leukemia
SF-268 CNS = test system: SF-268 CNS
UACC-62 melanoma = test system: UACC-62 melanoma
SR leukemia = test system: SR leukemia
786-0 renal = test system: 786-0 renal
OVCAR-5 ovarian = test system: OVCAR-5 ovarian
NCI-H522 lung = test system: NCI-H522 lung
HOP-92 NSCLC = test system: HOP-92 NSCLC
DMS 114 small cell lung = test system: DMS 114 small cell lung
UACC-257 melanoma = test system: UACC-257 melanoma
LOX IMVI melanoma = test system: LOX IMVI melanoma
MOLT-4 leukemia = test system: MOLT-4 leukemia
CCRF-CEM leukemia = test system: CCRF-CEM leukemia
XF 498 CNS = test system: XF 498 CNS
ACHN renal = test system: ACHN renal
UO-31 renal = test system: UO-31 renal
SK-MEL-28 melanoma = test system: SK-MEL-28 melanoma
TK-10 renal = test system: TK-10 renal
K-562 leukemia = test system: K-562 leukemia
HCT-15 colon = test system: HCT-15 colon
RXF 393 renal = test system: RXF 393 renal
SNB-78 CNS = test system: SNB-78 CNS
HT29 colon = test system: HT29 colon
U251 CNS = test system: U251 CNS
SF-539 CNS = test system: SF-539 CNS
A498 renal = test system: A498 renal
HCC-2998 colon = test system: HCC-2998 colon
OVCAR-8 ovarian = test system: OVCAR-8 ovarian
MALME-3M melanoma = test system: MALME-3M melanoma
SF-295 CNS = test system: SF-295 CNS
HCT-116 colon = test system: HCT-116 colon
KM20L2 colon = test system: KM20L2 colon
LXFL 529 NSCLC = test system: LXFL 529 NSCLC
NCI-H23 lung = test system: NCI-H23 lung
NCI-H460 lung = test system: NCI-H460 lung
IGROV1 ovarian = test system: IGROV1 ovarian
M19-MEL melanoma = test system: M19-MEL melanoma
EKVX NSCLC = test system: EKVX NSCLC
SK-MEL-2 melanoma = test system: SK-MEL-2 melanoma
M14 melanoma = test system: M14 melanoma
HOP-18 NSCLC = test system: HOP-18 NSCLC
A549 NSCLC = test system: A549 NSCLC
SN12C renal = test system: SN12C renal

## C[CH2][Sn]([CH2]C)([O]C(=O)c1ccccc1OC)[O][Sn]([CH2]C)([CH2]C)[O]C(=O)c1ccccc1OC
NCI-H226 lung
  GI50: > 100 µM
  TGI: > 100 µM
SK-MEL-5 melanoma
  GI50: > 100 µM
  TGI: > 100 µM
SNB-75 CNS
  GI50: > 100 µM
  TGI: > 100 µM
CAKI-1 renal
  GI50: 34.6 µM
  TGI: > 100 µM
SW-620 colon
  GI50: 44.8 µM
  TGI: > 100 µM
COLO 205 colon
  GI50: > 100 µM
  TGI: > 100 µM
SK-OV-3 ovarian
  GI50: > 100 µM
  TGI: > 100 µM
DLD-1 colon
  GI50: 50.2 µM
  TGI: > 100 µM
KM12 colon
  GI50: > 100 µM
  TGI: > 100 µM
OVCAR-3 ovarian
  GI50: > 100 µM
  TGI: > 100 µM
DMS 273 small cell lung
  GI50: > 100 µM
  TGI: > 100 µM
OVCAR-4 ovarian
  GI50: > 100 µM
  TGI: > 100 µM
SNB-19 CNS
  GI50: > 100 µM
  TGI: > 100 µM
HOP-62 NSCLC
  GI50: > 100 µM
  TGI: > 100 µM
HL-60(TB) leukemia
  GI50: > 100 µM
  TGI: > 100 µM
SF-268 CNS
  GI50: > 100 µM
  TGI: > 100 µM
UACC-62 melanoma
  GI50: > 100 µM
  TGI: > 100 µM
SR leukemia
  GI50: > 100 µM
  TGI: > 100 µM
786-0 renal
  GI50: > 100 µM
  TGI: > 100 µM
OVCAR-5 ovarian
  GI50: > 100 µM
  TGI: > 100 µM
NCI-H522 lung
  GI50: 3.02 µM
  TGI: 14.7 µM
HOP-92 NSCLC
  GI50: 89.4 µM
  TGI: > 100 µM
DMS 114 small cell lung
  GI50: 30 µM
  TGI: > 100 µM
UACC-257 melanoma
  GI50: > 100 µM
  TGI: > 100 µM
LOX IMVI melanoma
  GI50: 73 µM
  TGI: > 100 µM
MOLT-4 leukemia
  GI50: > 100 µM
  TGI: > 100 µM
CCRF-CEM leukemia
  GI50: 41.2 µM
  TGI: > 100 µM
XF 498 CNS
  GI50: > 100 µM
  TGI: > 100 µM
ACHN renal
  GI50: > 100 µM
  TGI: > 100 µM
UO-31 renal
  GI50: > 100 µM
  TGI: > 100 µM
SK-MEL-28 melanoma
  GI50: > 100 µM
  TGI: > 100 µM
TK-10 renal
  GI50: > 100 µM
  TGI: > 100 µM
K-562 leukemia
  GI50: 47 µM
  TGI: > 100 µM
HCT-15 colon
  GI50: > 100 µM
  TGI: > 100 µM
RXF 393 renal
  GI50: 43.3 µM
  TGI: > 100 µM
SNB-78 CNS
  GI50: 63.4 µM
  TGI: > 100 µM
HT29 colon
  GI50: > 100 µM
  TGI: > 100 µM
U251 CNS
  GI50: > 100 µM
  TGI: > 100 µM
SF-539 CNS
  GI50: > 100 µM
  TGI: > 100 µM
A498 renal
  GI50: 44.4 µM
  TGI: > 100 µM
HCC-2998 colon
  GI50: > 100 µM
  TGI: > 100 µM
OVCAR-8 ovarian
  GI50: > 100 µM
  TGI: > 100 µM
MALME-3M melanoma
  GI50: 27.6 µM
  TGI: > 100 µM
SF-295 CNS
  GI50: > 100 µM
  TGI: > 100 µM
HCT-116 colon
  GI50: > 100 µM
  TGI: > 100 µM
KM20L2 colon
  GI50: > 100 µM
  TGI: > 100 µM
LXFL 529 NSCLC
  GI50: 15.1 µM
  TGI: 28.5 µM
NCI-H23 lung
  GI50: > 100 µM
  TGI: > 100 µM
NCI-H460 lung
  GI50: > 100 µM
  TGI: > 100 µM
IGROV1 ovarian
  GI50: > 100 µM
  TGI: > 100 µM
M19-MEL melanoma
  GI50: > 100 µM
  TGI: > 100 µM
EKVX NSCLC
  GI50: > 100 µM
  TGI: > 100 µM
SK-MEL-2 melanoma
  GI50: 91.5 µM
  TGI: > 100 µM
M14 melanoma
  GI50: > 100 µM
  TGI: > 100 µM
HOP-18 NSCLC
  GI50: > 100 µM
  TGI: > 100 µM
A549 NSCLC
  GI50: > 100 µM
  TGI: > 100 µM
SN12C renal
  GI50: > 100 µM
  TGI: > 100 µM

Reference: PubChem BioAssay (NCI)
